What all share (test): growth of human tumour cells (NCI), 48 h
Assay [1] relates to 786-0 renal.
Assay [2] relates to CCRF-CEM leukemia.
The subject of assay [3] is HL-60(TB) leukemia.
The subject of assay [4] is IGROV1 ovarian.
For assay [5], the system named is NCI-H460 lung.
Assay [6] deals with RPMI-8226 leukemia.
In assay [7] the test system is RXF 393 renal.
For assay [8], the system named is SK-MEL-2 melanoma.
In assay [9] the test system is SN12C renal.
For assay [10], the system named is T-47D breast.

Where “and” joins values, the source holds several entries; their conditions need not be identical. Equal values may be shown once.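 Following 48 hours of exposure in 96-well plates, responses at five concentrations were used to interpolate endpoints linearly. GI50 is the concentration that inhibits growth by half. The concentration for full growth arrest is given as TGI.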

On to `COC(=O)Cc1c2n(c3ccccc13)C(=O)N1c3ccccc3C(CC(=O)OC)C21` (stereo unspecified), for which the TGI in assay [1] is greater than 100 µM; in [2], greater than 100 µM; in assay [3], greater than 100 µM; in assay [4], 71.6 µM; in assay [5], 33.6 µM; in [6], greater than 100 µM. The TGI is 64 µM in [7], greater than 100 µM in assay [8], greater than 100 µM in [9] and greater than 100 µM in assay [10].
As to `OC(CCN1CCN(CCOC(c2ccc(F)cc2)c2ccc(F)cc2)CC1)c1ccc(Br)cc1` (stereo unspecified), the TGI in assay [1] is 7.07 µM; in assay [2], 11.7 µM; in assay [3] it was 11.2 µM; in [4] it was 16.1 µM; in assay [5], 7.37 µM; in [6], 6.93 µM. The TGI in assay [7] came out at 10 µM; in [8], 18.8 µM; in [9], 7.12 µM; in assay [10] it was 13.7 µM.
For `Cc1cccc2c(N)c3cccc(C(=O)NCC[N+](C)(C)[O-])c3nc12`, the TGI in assay [1] was greater than 100 µM; in [2], greater than 100 µM; in assay [3] it was greater than 100 µM; in assay [4] it was greater than 100 µM; in assay [5], 10.2 µM; in assay [6] it was greater than 100 µM. Further, the TGI was 27.5 µM in [7], greater than 100 µM in [8], greater than 100 µM in assay [9] and greater than 100 µM in [10].
On to `C[N+]1(CCCCN2c3ccccc3Sc3cc(N=[N+]=[N-])ccc32)CCN(C(=O)CCNC(=O)Cc2ccc(C(=O)c3ccccc3)cc2)CC1`, for which the TGI in assay [1] was greater than 67.5 µM; in assay [2] it was 64.2 µM; in [3] it was 35.5 µM; in assay [4] it was greater than 77.6 µM; in [5] it was greater than 74.2 µM; in assay [6], 61.4 µM. The TGI is greater than 80 µM in [7], greater than 79.4 µM in assay [8], 53.5 µM in assay [9] and greater than 76.4 µM in assay [10].
In the case of `O=c1[nH]nc(-c2ccc([N+](=O)[O-])cc2)[nH]1`, the TGI in [1], in assay [2], in [3], in assay [4], in assay [5] and in [6] was greater than 100 µM throughout. In addition, the TGI in [7], in assay [8], in [9] and in assay [10] was greater than 100 µM throughout.
For the compound `Cc1ccc2nc(Nc3ccccc3C)c(Nc3ccccc3C)nc2c1`, the TGI in [1] is greater than 100 µM; in assay [2], greater than 80.6 µM; in assay [3], greater than 74.6 µM; in [4] it was greater than 100 µM; in assay [5] it was 45 µM; in [6] it was greater than 100 µM. In addition, the TGI in assay [7] is greater than 58.1 µM; in assay [8], 31.7 µM; in [9], greater than 100 µM; in assay [10] it was greater than 100 µM.
With `O=C1CCCC2=C1CC1=C(CCCC1=O)N2c1ccc(-c2ccccc2)cc1`, the TGI in [1], in [2], in assay [3], in assay [4], in assay [5] and in assay [6] was greater than 100 µM in each case. In addition, the TGI in assay [7] was greater than 58.9 µM; in assay [8], greater than 100 µM; in assay [9], greater than 100 µM; in assay [10], greater than 100 µM.
In the case of `CCCCCc1cc(CCCC)sc1-c1ccco1`, the TGI in [1] is greater than 100 µM; in assay [2], greater than 75 µM; in assay [3] it was 58.8 µM; in assay [4], greater than 100 µM; in assay [5], greater than 100 µM; in [6], greater than 100 µM. Further, the TGI in assay [7], in assay [8], in assay [9] and in assay [10] was greater than 100 µM throughout.
Regarding `C=CCN(c1cc(OC)c2[nH]c(C(=O)O)c(C)c2c1[N+](=O)[O-])S(C)(=O)=O`, the TGI in assay [1], in assay [2], in assay [3], in assay [4], in assay [5] and in assay [6] was greater than 100 µM in each case. The TGI in assay [7], in assay [8], in [9] and in assay [10] was greater than 100 µM each time.
As for `O=C(O)CCSc1ncnc2nc[nH]c12`, the TGI in assay [1], in assay [2], in assay [3], in assay [4], in assay [5] and in [6] was greater than 100 µM throughout. The TGI in assay [7], in assay [8], in assay [9] and in assay [10] was greater than 100 µM each time.
On to `CCOC(=O)OC1(c2ccccc2)CCN(C)CC1`, for which the TGI in [1], in assay [2], in assay [3], in [4], in assay [5] and in [6] was greater than 100 µM in each case. Besides, the TGI in assay [7], in [8], in assay [9] and in assay [10] was greater than 100 µM throughout.
`O=C(CCl)Nc1ccc(C(=O)N/N=C/c2ccc(Cl)cc2)cc1`: the TGI is 3.09 µM and 3.12 µM in [1]; 5.32 µM and 4.46 µM in assay [2]; 6.51 µM and 3.77 µM in [3]; 3.86 µM and 2.34 µM in [4]; 3.84 µM and 4.23 µM in assay [5]; 6.54 µM and 32.5 µM in [6]. The TGI in assay [7] is 2.39 µM and 6.52 µM; in assay [8] it was 4.14 µM and 14.7 µM; in [9], 9.71 µM and 7.07 µM. Moreover, the GI50 in [2] was 2.23 µM; in [3] it was 1.19 µM; in [4], 1.85 µM; in assay [6], 9.09 µM; in [7], 2.09 µM; in assay [8] it was 2.28 µM. Moreover, the GI50 in assay [10] is 0.195 µM.
On to `CCOP(=O)(CC1OC(CO)C(O)C1O)OCC` (stereo unspecified), for which the TGI in assay [1], in [2], in assay [3], in assay [4], in assay [5] and in [6] was greater than 100 µM each time. For the same compound, the TGI in [7], in assay [8], in assay [9] and in assay [10] was greater than 100 µM each time.
Take `N#Cc1ccnc(C(=O)N2CCCC2C(=O)O)c1` (stereo unspecified): the TGI in assay [1], in assay [2], in assay [3], in assay [4], in assay [5] and in assay [6] was greater than 100 µM in each case. For the same compound, the TGI in assay [7], in [8], in assay [9] and in assay [10] was greater than 100 µM in each case.
As for `CC(Br)CN(CC(C)Br)c1ccc2c(c1)Cc1ccccc1-2` (stereo unspecified), the TGI in assay [1] is 23.1 µM; in assay [2], greater than 100 µM; in assay [3], 15.6 µM; in [4], 20.7 µM; in [5] it was 9.23 µM; in [6], 71.8 µM. For the same compound, the TGI in [7] came out at 28 µM; in assay [8], 29.6 µM; in assay [9] it was 26.7 µM; in assay [10], 29.6 µM.
As for `O=C1c2cccnc2C(=O)c2c1nc1ccccc1c2-c1ccc2c3c(nc4ccccc42)C(=O)c2cccnc2-c13`, the TGI in assay [1] amounted to 1.91 µM; in assay [2], 15.5 µM; in assay [3] it was 5.42 µM; in assay [4] it was 1.39 µM; in assay [5], 3.97 µM; in [6], 7.14 µM. Moreover, the TGI worked out at 9.68 µM in assay [7], 14.1 µM in [8], 4.06 µM in assay [9] and 19.4 µM in [10].
`COC(=O)[C@@H]1[C@H]2CC[C@]3(C)[C@@H](OC(C)=O)CC[C@H]3[C@@H]2CC[C@H]1C1(C)SCCS1`: the TGI in assay [1] is 62.5 µM; in assay [2] it was 86.4 µM; in [3], 36.8 µM; in assay [4], greater than 100 µM; in assay [5], 97.8 µM; in [6] it was 43.4 µM. Also, the TGI in assay [7] is 40.6 µM; in assay [8] it was 40 µM; in assay [9], 37 µM; in assay [10], 56.8 µM.

These data come from PubChem BioAssay (NCI).
